According to the NIST ThermoML archive (doi:10.1021/acs.jced.9b00074):

Experiment: xn = mol fraction of the nth substance listed
Conditions: 100 kPa, Liquid; for viscosity: Falling or rolling sphere viscometry; for mass density: Vibrating tube method

CC12CC3CC(C1)CC(C)(C3)C2 [1,3-dimethyladamantane] + OC1CCCC1
Conditions | mass density [kg/m3] | viscosity [mPa·s]
293.15 K, x2 = 0.0963 | 903.9 | 3.868
293.15 K, x2 = 0.1973 | 906.97 | 4.123
293.15 K, x2 = 0.3101 | 910.8 | 4.531
293.15 K, x2 = 0.4019 | 914.34 | 4.967
293.15 K, x2 = 0.4995 | 918.49 | 5.61
293.15 K, x2 = 0.5999 | 923.27 | 6.396
293.15 K, x2 = 0.6997 | 928.58 | 7.57
293.15 K, x2 = 0.7976 | 934.17 | 8.863
293.15 K, x2 = 0.9003 | 940.6 | 10.32
298.15 K, x2 = 0.0963 | 900.22 | 3.42
298.15 K, x2 = 0.1973 | 903.23 | 3.627
298.15 K, x2 = 0.3101 | 907 | 3.953
298.15 K, x2 = 0.4019 | 910.49 | 4.3
298.15 K, x2 = 0.4995 | 914.58 | 4.805
298.15 K, x2 = 0.5999 | 919.31 | 5.428
298.15 K, x2 = 0.6997 | 924.57 | 6.304
298.15 K, x2 = 0.7976 | 930.15 | 7.3
298.15 K, x2 = 0.9003 | 936.59 | 8.417
303.15 K, x2 = 0.0963 | 896.53 | 3.048
303.15 K, x2 = 0.1973 | 899.47 | 3.212
303.15 K, x2 = 0.3101 | 903.18 | 3.477
303.15 K, x2 = 0.4019 | 906.62 | 3.756
303.15 K, x2 = 0.4995 | 910.65 | 4.154
303.15 K, x2 = 0.5999 | 915.31 | 4.643
303.15 K, x2 = 0.6997 | 920.53 | 5.319
303.15 K, x2 = 0.7976 | 926.1 | 6.092
303.15 K, x2 = 0.9003 | 932.59 | 6.972
308.15 K, x2 = 0.0963 | 892.84 | 2.729
308.15 K, x2 = 0.1973 | 895.7 | 2.863
308.15 K, x2 = 0.3101 | 899.33 | 3.076
308.15 K, x2 = 0.4019 | 902.72 | 3.302
308.15 K, x2 = 0.4995 | 906.7 | 3.618
308.15 K, x2 = 0.5999 | 911.29 | 4.007
308.15 K, x2 = 0.6997 | 916.45 | 4.532
308.15 K, x2 = 0.7976 | 922.01 | 5.135
308.15 K, x2 = 0.9003 | 928.43 | 5.829
313.15 K, x2 = 0.0963 | 889.12 | 2.457
313.15 K, x2 = 0.1973 | 891.91 | 2.565
313.15 K, x2 = 0.3101 | 895.47 | 2.736
313.15 K, x2 = 0.4019 | 898.8 | 2.919
313.15 K, x2 = 0.4995 | 902.71 | 3.174
313.15 K, x2 = 0.5999 | 907.24 | 3.484
313.15 K, x2 = 0.6997 | 912.35 | 3.891
313.15 K, x2 = 0.7976 | 917.88 | 4.365
313.15 K, x2 = 0.9003 | 924.29 | 4.915
318.15 K, x2 = 0.0963 | 885.4 | 2.222
318.15 K, x2 = 0.1973 | 888.1 | 2.307
318.15 K, x2 = 0.3101 | 891.59 | 2.447
318.15 K, x2 = 0.4019 | 894.85 | 2.595
318.15 K, x2 = 0.4995 | 898.7 | 2.801
318.15 K, x2 = 0.5999 | 903.16 | 3.048
318.15 K, x2 = 0.6997 | 908.21 | 3.368
318.15 K, x2 = 0.7976 | 913.7 | 3.742
318.15 K, x2 = 0.9003 | 920.09 | 4.179
323.15 K, x2 = 0.0963 | 881.66 | 2.018
323.15 K, x2 = 0.1973 | 884.27 | 2.083
323.15 K, x2 = 0.3101 | 887.67 | 2.199
323.15 K, x2 = 0.4019 | 890.88 | 2.32
323.15 K, x2 = 0.4995 | 894.66 | 2.485
323.15 K, x2 = 0.5999 | 899.04 | 2.681
323.15 K, x2 = 0.6997 | 904.03 | 2.935
323.15 K, x2 = 0.7976 | 909.47 | 3.234
323.15 K, x2 = 0.9003 | 915.84 | 3.582
328.15 K, x2 = 0.0963 | 877.91 | 1.841
328.15 K, x2 = 0.1973 | 880.42 | 1.893
328.15 K, x2 = 0.3101 | 883.74 | 1.984
328.15 K, x2 = 0.4019 | 886.87 | 2.082
328.15 K, x2 = 0.4995 | 890.58 | 2.217
328.15 K, x2 = 0.5999 | 894.89 | 2.376
328.15 K, x2 = 0.6997 | 899.81 | 2.576
328.15 K, x2 = 0.7976 | 905.2 | 2.814
328.15 K, x2 = 0.9003 | 911.54 | 3.093
333.15 K, x2 = 0.0963 | 874.14 | 1.686
333.15 K, x2 = 0.1973 | 876.55 | 1.724
333.15 K, x2 = 0.3101 | 879.77 | 1.797
333.15 K, x2 = 0.4019 | 882.83 | 1.877
333.15 K, x2 = 0.4995 | 886.46 | 1.987
333.15 K, x2 = 0.5999 | 890.7 | 2.116
333.15 K, x2 = 0.6997 | 895.55 | 2.275
333.15 K, x2 = 0.7976 | 900.88 | 2.469
333.15 K, x2 = 0.9003 | 907.18 | 2.689

CC12CC3CC(C1)CC(C)(C3)C2 [1,3-dimethyladamantane] + C1C[C@@H]2[C@H]3CC[C@H](C3)[C@@H]2C1
Conditions | mass density [kg/m3] | viscosity [mPa·s]
293.15 K, x2 = 0.0998 | 905.2 | 3.715
293.15 K, x2 = 0.2023 | 908.96 | 3.67
293.15 K, x2 = 0.2984 | 912.36 | 3.623
293.15 K, x2 = 0.3996 | 915.9 | 3.555
293.15 K, x2 = 0.4998 | 919.37 | 3.474
293.15 K, x2 = 0.5973 | 922.65 | 3.388
293.15 K, x2 = 0.7005 | 926.17 | 3.293
293.15 K, x2 = 0.8026 | 929.43 | 3.2
293.15 K, x2 = 0.9 | 932.64 | 3.114
298.15 K, x2 = 0.0998 | 901.59 | 3.316
298.15 K, x2 = 0.2023 | 905.3 | 3.277
298.15 K, x2 = 0.2984 | 908.68 | 3.238
298.15 K, x2 = 0.3996 | 912.18 | 3.181
298.15 K, x2 = 0.4998 | 915.61 | 3.116
298.15 K, x2 = 0.5973 | 918.86 | 3.045
298.15 K, x2 = 0.7005 | 922.34 | 2.965
298.15 K, x2 = 0.8026 | 925.59 | 2.885
298.15 K, x2 = 0.9 | 928.76 | 2.814
303.15 K, x2 = 0.0998 | 897.97 | 2.977
303.15 K, x2 = 0.2023 | 901.64 | 2.947
303.15 K, x2 = 0.2984 | 904.99 | 2.915
303.15 K, x2 = 0.3996 | 908.45 | 2.867
303.15 K, x2 = 0.4998 | 911.85 | 2.81
303.15 K, x2 = 0.5973 | 915.06 | 2.75
303.15 K, x2 = 0.7005 | 918.51 | 2.68
303.15 K, x2 = 0.8026 | 921.77 | 2.618
303.15 K, x2 = 0.9 | 924.88 | 2.555
308.15 K, x2 = 0.0998 | 894.36 | 2.687
308.15 K, x2 = 0.2023 | 897.98 | 2.666
308.15 K, x2 = 0.2984 | 901.29 | 2.637
308.15 K, x2 = 0.3996 | 904.71 | 2.601
308.15 K, x2 = 0.4998 | 908.08 | 2.547
308.15 K, x2 = 0.5973 | 911.26 | 2.495
308.15 K, x2 = 0.7005 | 914.67 | 2.438
308.15 K, x2 = 0.8026 | 917.91 | 2.385
308.15 K, x2 = 0.9 | 921 | 2.332
313.15 K, x2 = 0.0998 | 890.74 | 2.44
313.15 K, x2 = 0.2023 | 894.32 | 2.422
313.15 K, x2 = 0.2984 | 897.59 | 2.394
313.15 K, x2 = 0.3996 | 900.98 | 2.363
313.15 K, x2 = 0.4998 | 904.31 | 2.319
313.15 K, x2 = 0.5973 | 907.45 | 2.275
313.15 K, x2 = 0.7005 | 910.84 | 2.227
313.15 K, x2 = 0.8026 | 914.04 | 2.179
313.15 K, x2 = 0.9 | 917.12 | 2.136
318.15 K, x2 = 0.0998 | 887.12 | 2.222
318.15 K, x2 = 0.2023 | 890.65 | 2.209
318.15 K, x2 = 0.2984 | 893.89 | 2.185
318.15 K, x2 = 0.3996 | 897.24 | 2.157
318.15 K, x2 = 0.4998 | 900.53 | 2.121
318.15 K, x2 = 0.5973 | 903.65 | 2.081
318.15 K, x2 = 0.7005 | 906.99 | 2.042
318.15 K, x2 = 0.8026 | 910.17 | 2.002
318.15 K, x2 = 0.9 | 913.23 | 1.964
323.15 K, x2 = 0.0998 | 883.5 | 2.032
323.15 K, x2 = 0.2023 | 886.99 | 2.02
323.15 K, x2 = 0.2984 | 890.18 | 2.001
323.15 K, x2 = 0.3996 | 893.49 | 1.978
323.15 K, x2 = 0.4998 | 896.75 | 1.946
323.15 K, x2 = 0.5973 | 899.83 | 1.915
323.15 K, x2 = 0.7005 | 903.15 | 1.879
323.15 K, x2 = 0.8026 | 906.3 | 1.844
323.15 K, x2 = 0.9 | 909.33 | 1.812
328.15 K, x2 = 0.0998 | 879.87 | 1.867
328.15 K, x2 = 0.2023 | 883.31 | 1.857
328.15 K, x2 = 0.2984 | 886.47 | 1.839
328.15 K, x2 = 0.3996 | 889.74 | 1.819
328.15 K, x2 = 0.4998 | 892.97 | 1.794
328.15 K, x2 = 0.5973 | 896.02 | 1.764
328.15 K, x2 = 0.7005 | 899.3 | 1.734
328.15 K, x2 = 0.8026 | 902.43 | 1.704
328.15 K, x2 = 0.9 | 905.43 | 1.677
333.15 K, x2 = 0.0998 | 876.23 | 1.719
333.15 K, x2 = 0.2023 | 879.65 | 1.714
333.15 K, x2 = 0.2984 | 882.76 | 1.696
333.15 K, x2 = 0.3996 | 885.99 | 1.679
333.15 K, x2 = 0.4998 | 889.18 | 1.657
333.15 K, x2 = 0.5973 | 892.2 | 1.631
333.15 K, x2 = 0.7005 | 895.45 | 1.605
333.15 K, x2 = 0.8026 | 898.54 | 1.58
333.15 K, x2 = 0.9 | 901.52 | 1.557
